Patent US11549123B2, “Plant EPSP synthases and methods of use” (PIONEER HI-BRED INTERNATIONAL, INC., priority 2015, dated 2023)
Changes are numbered by the printed parent chain.

How the values were obtained:
[1] = molecular target: T1, Oryza sativa EPSPS, native, SEQ ID NO:7 (Oryza sativa, UniProt Q93VK6); test: EPSPS substrate saturation kinetics, native rice; assay type: biochemical
T1 sequence (Q93VK6 64-511): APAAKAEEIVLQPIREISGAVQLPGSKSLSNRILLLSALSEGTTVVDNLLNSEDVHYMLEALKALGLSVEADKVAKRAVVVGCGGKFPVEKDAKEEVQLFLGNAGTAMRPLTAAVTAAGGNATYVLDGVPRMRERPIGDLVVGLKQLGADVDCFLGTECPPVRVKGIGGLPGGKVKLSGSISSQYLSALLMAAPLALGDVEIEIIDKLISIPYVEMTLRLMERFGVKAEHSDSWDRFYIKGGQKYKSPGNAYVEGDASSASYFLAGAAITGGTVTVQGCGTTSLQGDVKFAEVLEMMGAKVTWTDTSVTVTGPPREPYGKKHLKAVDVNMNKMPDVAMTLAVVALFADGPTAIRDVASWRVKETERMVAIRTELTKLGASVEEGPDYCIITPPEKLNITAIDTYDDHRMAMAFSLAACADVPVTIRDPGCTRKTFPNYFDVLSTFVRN
Protocol: (§1) EPSPS activity was determined by quantifying the phosphate generated from the EPSPS reaction. Release of inorganic phosphate was coupled to reaction with 2-amino-6-mercapto-7-methylpurine ribonucleoside, catalyzed by purine-nucleoside phosphorylase (M R Webb, Proc. Natl. Acad. Sci. 89:4884-4887, 1992). The absorbance change that occurs was monitored at 360 nm, where the extinction is 11,200 M^−1 cm^−1, with a Spectramax plate reader (Molecular Devices). To determine kinetic parameters, the varied substrate was present at seven concentrations (the eighth being the blank, containing no substrate) ranging from 4 to 400 uM and the unvaried substrate present at saturation. Six microliters of 50-fold concentrated stock solutions of the varied substrate were placed in the wells of the 96-well assay plate and reactions were started with the addition of a mixture containing 25 mM Hepes, pH 7, 100 mM KCl, 0.3 mM 2-amino-6-mercapto-7-methylpurine ribonucleosde, 1 uM (1 unit/ml) purine-nucleoside phosphorylase (Sigma N8264) and 200 uM of the non-varied substrate. Reactions were monitored with a Spectramax plate reader. The Michaelis-Menten kinetics protocol of the Spectramax software was customized for the substrate concentrations used. The software returns values of KM and Vmax using the Lineweaver-Burke transformation of the Michaelis-Menten equation. To determine kcat, Vmax (uM/min) was divided by the enzyme concentration (uM). […] KI was then calculated from the following form of the Michaelis-Menten equation for competitive inhibition: KI=KM[I]/(KM app−KM) KM approximates the dissociation constant of the enzyme-substrate complex while kcat is the rate of conversion of substrate to product when the substrate concentration is saturating. kcat/KM is a widely accepted parameter for catalytic efficiency when substrate concentration is low (˜KM). […] The parameter kcat/KM×KI is used to quantify both catalytic efficiency and insensitivity and thus the overall fitness of the enzyme.
Native EPSPS amino acid sequences of rice (Oryza sativa) (SEQ ID NO:7), sorghum (Sorghum halepense) (SEQ ID NO:8), and sunflower (Helianthus annus) (SEQ ID NO:9) including the chloroplast transit peptide sequences were assembled and analyzed for mapping the corresponding amino acid mutations from the maize 868-H6. If complete EPSPS sequences were not available, appropriate adjustments were made based on sequence alignments and conserved residue mapping.
ChloroP Prediction Server (Emanuelsson, O. et al. 1999. Protein Sci. 8(5):978-84) was used to approximate the amino terminus of the mature EPSPS proteins. […] The synthetic genes were cloned into a plasmid vector and expressed, purified and analyzed as described in Example 1.

[2] = molecular target: T2, Zea mays EPSPS variant V-G at positions 103-107 (Zea mays, UniProt O24566, P106G/T102V); test: EPSPS substrate saturation kinetics, maize variant 103V 107G; assay type: biochemical
T2 sequence (O24566 with tags, fused parts or gaps T102V/P106G): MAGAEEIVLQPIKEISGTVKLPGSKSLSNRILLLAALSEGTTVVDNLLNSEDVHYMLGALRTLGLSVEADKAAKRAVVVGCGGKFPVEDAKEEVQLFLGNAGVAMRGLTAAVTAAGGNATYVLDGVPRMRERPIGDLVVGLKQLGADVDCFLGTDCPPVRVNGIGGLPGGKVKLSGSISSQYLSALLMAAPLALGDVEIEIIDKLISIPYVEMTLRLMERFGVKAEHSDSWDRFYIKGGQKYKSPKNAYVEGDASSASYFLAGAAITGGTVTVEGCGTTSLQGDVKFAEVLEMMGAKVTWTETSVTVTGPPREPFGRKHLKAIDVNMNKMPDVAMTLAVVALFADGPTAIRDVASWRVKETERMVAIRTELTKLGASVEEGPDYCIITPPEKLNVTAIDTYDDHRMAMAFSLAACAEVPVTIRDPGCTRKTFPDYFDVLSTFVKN
Protocol: as §1, with “enzyme. […]” for “enzyme.”

[3] = molecular target: T3, Zea mays EPSPS variant P107L (Zea mays, UniProt O24566, P106L); test: EPSPS substrate saturation kinetics, P107L
T3 sequence (O24566 with tags, fused parts or gaps P106L): T2 sequence (O24566 with tags, fused parts or gaps T102V/P106G) with V103T, G107L

[4] = PEP as substrate, glyphosate as inhibitor

Structure (SMILES)	kcat ([1]; PEP varied) [s⁻¹]	Km ([1]; read-out: KM (PEP), PEP varied) [µM]	kcat ([2]; PEP varied)	kcat/KM ([3]; PEP) [min^−1uM^−1]	kcat ([3]; PEP varied) [s⁻¹]	Ki [1] [µM]	(kcat/KM)*KI [1, 4]	Ki [2] [µM]	(kcat/KM)*KI [2, 4]	Ki ([3]; KI (glyphosate), competitive with PEP) [µM]	Ki ([3]; Ki, substrate saturation, Zm-P107L) [µM]	(kcat/KM)*KI [3, 4]	(kcat/KM)*KI ([3]; substrate saturation, Zm-P107L)
C=C(OP(=O)(O)O)C(=O)O [PEP, phosphoenolpyruvate]	30.97	12.6	324	22.1	24.2	–	–	–	–	–	–	–	–
O=C(O)CNCP(=O)(O)O [glyphosate, N-phosphonomethylglycine]	–	–	–	–	–	0.1	18	480	1170	3.6	3.05	79	70
